Key:
[1] = tested on: MCF-7 breast cancer cells; assay: Cytotoxicity against MCF-7 cells; settings: read-out: IC50, cytotoxicity against MCF-7 cells
HT-29 colon cancer cells = assay: Cytotoxicity against HT-29 cells; settings: read-out: IC50, cytotoxicity against HT-29 cells
[2] = Structural stability in DMSO-d6; assay type: physicochemical

structural stability in DMSO-d6 [2] | Compound | IC50 [1] [µM] | IC50 (HT-29 colon cancer cells) [µM]
 | C=C[C@]1(C)CC[C@H]2C(=C1C#N)c1c([nH]c3ccccc13)C2(C)C (relative stereo) [Compound 2, deschloro 12-epi-fischerindole I nitrile] | > 40 | 23
structurally unstable | C=C[C@]1(C)[C@H](Cl)Cc2cc(C)c3[nH]c4ccccc4c3c2[C@@H]1C#N (relative stereo) [Compound 3, 12-epi-fischerindole W nitrile] |  | 
structurally unstable | C=C[C@]1(C)CCc2cc(C)c3[nH]c4ccccc4c3c2[C@@H]1C#N (relative stereo) [Compound 4, deschloro 12-epi-fischerindole W nitrile] |  | 

— paper PMC3315833 (Tetrahedron, 2012)
